The subject of one test is KDM4A. In words: Demethylase activity of wild type KDM4A on peptide substrates (MALDI-TOF MS). Format: biochemical, human. Conditions: 10 µM enzyme, 10 µM peptide, 1 mM 2OG, 50 mM Tris pH 8, 37°C, three hours. The protocol:
fritted syringe was rocked for 2-4 hours at room temperature using a fixed angle rocker (Fisher 07202202). After cleavage, the solvent was ejected from the syringe into a 50mL Falcon tube, leaving behind the resin in the syringe. Nitrogen gas was bubbled through the solution to remove roughly 50% of the TFA prior to precipitation via -80°C diethyl ether for 5-10 minutes (Acros #326860010). Precipitate was then pelleted via centrifugation (Sorvall Legend XTR) at 3000 rpm for 5 mins. Supernatant was decanted. Crude peptide was then resuspended in 0.1% TFA prior to purification and characterization as described for peptides from the peptide facility. The integrity of the purified peptides was confirmed by MALDI-TOF MS. The complete list is in Table S1.
3. Expression and purification of wild type KDM4A-E […]
bacterial expression construct pNIC28-Bsa4 (Addgene ID: 38846) was obtained from Addgene […]
E. Coli BL21 (DE3) competent cells (Invitrogen) using pNIC28-Bsa4 kanamycin-resistant vector.
A single colony was picked up and grown overnight at 37 °C in 10 mL of Luria-Bertani (LB) broth in the presence of 50 μg/mL kanamycin and 35 μg/mL chloramphenicol. The culture was diluted 100-fold and allowed to grow at 37 °C to an optical density (OD600) of 0.8, and protein expression was induced overnight at 17 °C with 0.6 mM IPTG in an Innova 44® Incubator shaker (New Brunswick Scientific). Proteins were purified as follows: harvested cells were resuspended in 15 mL lysis buffer (50 mM Tris-HCl pH 8.0, 200 mM NaCl, 5 mM b-mercaptoethanol, 10% glycerol, 25 mM imidazole, Lysozyme, DNase, and Roche protease inhibitor cocktail). […]
After passing 20 volumes of washing buffer (50 mM Tris-HCl pH 8.0, 200 mM NaCl, 5 mM b-mercaptoethanol, 10% glycerol, and 25 mM imidazole), proteins were eluted with a buffer containing 50 mM Tris-HCl pH 8.0, 200 mM NaCl, 5 mM b-mercaptoethanol, 10% glycerol, and 400 mM imidazole. […] The protein concentration was determined […]
8.0, 200 mM NaCl, and 10% glycerol. […] The protein concentration was determined using Bradford assay kit (BioRad Laboratories) with BSA as a standard. […]

The target in test [1] is T1, CBX1 chromodomain (Homo sapiens, UniProt P83916).
T1 construct: occupied by CBX1 chromodomain at a concentration of 110 µM; 6xHis (N); made in house
T1 sequence (P83916 21-79 limits assumed): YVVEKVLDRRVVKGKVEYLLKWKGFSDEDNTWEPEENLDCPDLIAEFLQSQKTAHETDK
In words: Isothermal titration calorimetry of peptide binding to CBX1 chromodomain. The settings on record: ITC, 25 °C, 1.1 mM peptide into 110 µM CBX1 chromodomain; for Kd: 200mM NaCl, 10% glycerol, 50mM Tris pH 8.0, single binding site model. How it is done: (§1) 7. Expression and purification of lysine methyltransferases and Chromodomains […]
17. Isothermal Titration Calorimetry
Isothermal titration calorimetry (ITC) was performed with an ITC200 instrument (MicroCal, Malvern). Experiments were conducted at 25 °C while stirring at 750 rpm. Buffers of protein […]
were matched to 200mM NaCl, 10% glycerol, and 50mM Tris pH 8.0. Each titration was performed as follows: one initial injection of 0.4 µL for 0.8 seconds, followed by 19 injections of 2.0 µL for 4 seconds, with ≥2 mins between each injection. The initial injection was discarded prior to data analysis. The microsyringe (40µL) was loaded with 1.1 mM peptide and injected into the cell (200µL), occupied by CBX1 chromodomain at a concentration of 110 µM. Data was fitted to a single binding site model using Microcal ITC200 Software with Origin Lab 7.
(§2) KDM4A mammalian expression plasmid in CMV vector was purchased from Addgene (plasmid #24180). Full-length G9a in pCDNA3 vector was kind from Prof. Minkui Luo at the Memorial Sloan-Kettering Cancer Center. HEK293T/17 cells (ATCC) were grown in a T25 containing Delbucco’s Modified Eagle Medium (DMEM) (Corning) with 10% FBS at 37 °C, 5% CO2, and 95% relative humidity. When cells reached 80% confluency, 5 µg of plasmid and 10 µg
In general terms: In ITC the heat of successive injections is recorded.

The target in test [2] is T1, CBX1 chromodomain. The test is described as above. Conditions: ITC, T 288.15 K in Table S6.
The subject of a further test is G9a. In words: Methylation of eIF4A3-K374 peptides by KMT (MALDI-TOF MS). Format: biochemical. Conditions: 20 µM KMT, 10 µM peptide, 200 µM SAM. The protocol:
as §1
16. Methylation activity of wild type KMTs on eIF4A3-K374me0/1/2 peptides 20 µM lysine methyltransferase, 10 µM eIF4A3-me0/1/2 peptide and 200 µM SAM were incubated at room temperature for 1-2 hours in 50 mM Tris pH 8.0. Reaction was stopped by storing the microcentrifuge tubes on ice. After mixing, 0.8 µL of sample and 0.8 µL of α-cyano-4-hydroxycinnamic acid (CHCA) (dissolved in 50:50 0.1% TFA and acetonitrile) were combined on a MALDI plate. Samples were ionized using reflectron positive mode on Bruker Daltonics UltrafleXtreme MALDI TOF with detection carried out from 700-3500 m/z. Bruker Flex Analysis software was used to analyze the MALDI-TOF MS spectra.
17. Isothermal Titration Calorimetry […]
The microsyringe (40µL) was loaded with 1.1 mM peptide and injected into the cell (200µL), occupied by CBX1 chromodomain at a concentration of 110 µM. Data was fitted to a single binding site model using Microcal ITC200 Software with Origin Lab 7.
as §2

For another test, the system named is KDM4A-E. Description: Demethylase activity of KDM4 subfamily on peptide substrates (MALDI-TOF MS), result worded for KDM4A-E together. Format: biochemical, human. The settings on record: wild-type KDM4A-E, 10 µM enzyme, 10 µM peptide, 1 mM 2OG, 50 mM Tris pH 8, 37°C, three hours.
Test [3] deals with KDM4A-I71AzF. In words: Demethylase activity of AzF mutant on peptide substrates (MALDI-TOF MS). Format: biochemical, human. Conditions: 10 µM enzyme, 10 µM peptide, 1 mM 2OG, 50 mM Tris pH 8, 37°C, three hours.
The next test concerns KDM4D-L75AzF. In words: Photo-crosslinking with TAMRA peptides, in-gel fluorescence. Format: binding, human. The settings on record: 10 µM peptide, 20 µM protein, UV irradiation. The protocol:
(§3) 10. Photo-crosslinking experiment with peptides and in-gel fluorescence For peptide photo-crosslinking experiments, 10 µM TAMRA-labeled H3K9me0 or H3K9me3 […]
(§4) mM ascorbic acid, 50 mM tris pH 8.0, 50 μM Fe(NH4)2(SO4)2, 200 µM 2OG. Samples were […]
(§5) 365nm 100% irradiated) for 30 minutes at 4 °C on ice. Negative controls were kept in dark on ice for the full 30 minutes. 10 µL of sample was mixed with 5 µL 4X Laemmli dye (Biorad #1610747) and separated on a 4-12 % Criterion XT precast gel (Bio-Rad Laboratories). Gels were imaged on a ChemiDoc MP Imaging system using TAMRA fluorophore excitation wavelength (Emission filter 605/50, Light: green Epi illumination). The gel was subsequently stained with Coomassie brilliant blue R-250 staining solution to confirm the presence of proteins in all the samples. […]

Test [4] has as its system catalytically dead AzF variants of KDM4A. The description is as above. The test is classed as binding, human. The settings on record: majority of the catalytically dead AzF variants, 10 µM peptide, 20 µM protein, 365 nm UV, 30 minutes. The protocol:
as §3, §4, §5

The next test deals with wild-type KDM4A. Described as above. Format: binding, human. The settings on record: 10 µM peptide, 20 µM protein, 365 nm UV, 30 minutes at 4 °C. How it is done:
as §3, §4, §5

The test system of a further test is KDM4C-I73AzF. The test is described as above. The test is classed as binding, human. The settings on record: 10 µM peptide, 20 µM protein, UV irradiation. How it is done: as §3, §4, §5
A further test relates to KDM4E-L72AzF. The description is as above. Format: binding. Conditions: 10 µM peptide, 20 µM protein, UV irradiation. The protocol: as §3, §4, §5
Test [5] relates to KDM4A-I71AzF. Described as above. The test is classed as binding, human.

“Also recorded” adds a separate entry of the source. Where a SMILES comes first, the peptide text is derived from it. Where no end group is shown, it is not given here. [ ]: non-standard residue; d: D form. Lys(Me3) = C[N+](C)(C)CCCC[C@H](N)C(=O)O; Lys(Me2) = CN(C)CCCC[C@H](N)C(=O)O; Lys(Me) = CNCCCC[C@H](N)C(=O)O

Turning to “GRSGRYGR[Lys(Me)]GVAINFVK [compound 22, eIF4A3-K374me1 peptide]”, in the test with KDM4A, the “demethylation by KDM4A” value is given as “not demethylated by KDM4A; also recorded: failed to convert to Kme0”. At CBX1 chromodomain [1] (50mM Tris pH 8.0), the “binding to CBX1 chromodomain (in words)” value is reported as “no binding; also recorded: not bind to CBX1; also recorded: no detectable interaction”. On CBX1 chromodomain [2], this compound had a TΔS of 0 kcal/mol, a ΔG of 0 kcal/mol, a ΔH of 0 kcal/mol and a ΔS of 0 cal/mol/degree. Also, in the test with G9a, the “methylation by G9a (in words)” value was “methylated by G9a; also recorded: trimethylated by G9a”.
As usually defined, the Kd is the free concentration of one partner at which half of the binding sites on the other are occupied at equilibrium, for simple one-to-one binding. Take `CC[C@H](C)[C@H](NC(=O)[C@H](C)NC(=O)[C@@H](NC(=O)CNC(=O)[C@H](CCCC[N+](C)(C)C)NC(=O)[C@H](CCCNC(=N)N)NC(=O)CNC(=O)[C@H](Cc1ccc(O)cc1)NC(=O)[C@H](CCCNC(=N)N)NC(=O)CNC(=O)[C@H](CO)NC(=O)[C@H](CCCNC(=N)N)NC(=O)CN)C(C)C)C(=O)N[C@@H](CC(N)=O)C(=O)N[C@@H](Cc1ccccc1)C(=O)N[C@H](C(=O)N[C@@H](CCCCN)C(N)=O)C(C)C` [compound 13] (H-GRSGRYGR[Lys(Me3)]GVAINFVK-NH2): the “demethylation by KDM4A” value with KDM4A is given as “indeed demethylated by KDM4A in vitro”. This compound also yielded a Kd on CBX1 chromodomain [1] of 23.2 ± 2 µM. Further, on CBX1 chromodomain [2], the TΔS stood at 2.472 kcal/mol, the ΔG was -6.230 kcal/mol, the ΔH was -3.758 kcal/mol and the ΔS turned out to be 8.58 cal/mol/degree. Moreover, the “demethylation by KDM4A-E” value in the test with KDM4A-E is listed as “demethylated by multiple KDM4s; also recorded: robust demethylation”.
Regarding “KSAPSTGGVKme3KPHRYKPGTGK [compound 5, H3K36me3 peptide]”, the “demethylation by I71AzF mutant” value in the test with KDM4A-I71AzF [3] is given as “modestly”.
For “(5/6)-TA M R A-GGARTKQTARKme3STGGKAPR [compound 6, tetramethylrhodamine (TAMRA)-attached H3K9me3 peptide]”, in the test with KDM4D-L75AzF, the “crosslinking with KDM4D-L75AzF” value is on record as “successful crosslinking”. In addition, the “crosslinking with catalytically dead AzF variants” value in test [4] is “ineffective to trap the substrate”. Moreover, in the test on wild-type KDM4A, the “crosslinking with wild-type KDM4A” value is reported as “failed to undergo crosslinking”. In addition, the “crosslinking with KDM4C-I73AzF” value in the test with KDM4C-I73AzF is on record as “successful crosslinking”. Moreover, the “crosslinking with KDM4E-L72AzF” value in the test on KDM4E-L72AzF was “successful crosslinking”. Further, in the test with KDM4A-I71AzF [5] (10 µM peptide, 20 µM protein, 365 nm UV, 30 minutes at 4 °C), the “crosslinking with KDM4A-I71AzF” value is “robust crosslinking”. In the test with KDM4A-I71AzF [5] (kept in dark on ice 30 minutes), the “crosslinking without UV exposure (control)” value is listed as “no fluorescence band was detected”.
Consider `CC[C@H](C)[C@H](NC(=O)[C@H](C)NC(=O)[C@@H](NC(=O)CNC(=O)[C@H](CCCCN(C)C)NC(=O)[C@H](CCCNC(=N)N)NC(=O)CNC(=O)[C@H](Cc1ccc(O)cc1)NC(=O)[C@H](CCCNC(=N)N)NC(=O)CNC(=O)[C@H](CO)NC(=O)[C@H](CCCNC(=N)N)NC(=O)CN)C(C)C)C(=O)N[C@@H](CC(N)=O)C(=O)N[C@@H](Cc1ccccc1)C(=O)N[C@H](C(=O)N[C@@H](CCCCN)C(N)=O)C(C)C` [compound 23] (H-GRSGRYGR[Lys(Me2)]GVAINFVK-NH2), for which, in the test with KDM4A, the “demethylation by KDM4A” value is “demethylated only to eIF4A3-K374me1 by KDM4A; also recorded: demethylated to Kme1 by KDM4A”. The dissociation constant (Kd) on CBX1 chromodomain [1] was determined as 95.2 ± 1.4 µM. At CBX1 chromodomain [2], this compound registered a TΔS of -1.106 kcal/mol, a ΔG of -5.470 kcal/mol, a ΔH of -6.576 kcal/mol and a ΔS of -3.84 cal/mol/degree. In addition, in the test on G9a, the “methylation by G9a (in words)” value is reported as “methylated by G9a; also recorded: trimethylated by G9a”.

These data come from PMC10540216, “Activity Guided Azide-methyllysine Photo-trapping for Substrate Profiling of Lysine Demethylases” (Journal of the American Chemical Society, 2023).
